# Read-outs that look alike come from different tables or passages of the source.
# What was measured:
# [1] = tested on: BALB/c mouse spleen cells; assay: Mitogenic activity (3H-thymidine incorporation into mouse spleen cells)
# male C57BL mouse = assay: Galactosamine-loaded lethal toxicity test; format: in vivo; conditions: 16 mg D-galactosamine/HCl i.p., compound i.v., 24 hours
# Procedure: The galactosamine-loaded lethal toxicity was determined by using the following experimental system.
# 16 mg of D-galactosamine/HCl was intraperitoneally administered to a male C57BL mouse aged 8 weeks. Immediately thereafter, the compound of the present invention was intravenously injected into the animal and the conditions were observed after 24 hours.
# [2] = tested on: vesicular stomatitis virus (VSV); format: cell-based, vesicular stomatitis virus; mouse L929 cells
# [3] = tested on: methylcholanthrene-induced fibrosarcoma (Meth A); assay: Antitumor activity (macrophage cytostatic activity on Meth A fibrosarcoma); format: cell-based, mouse (BALB/c)
# Procedure: This test was effected by examining a cytostatic activity on methylcholanthrene-induced fibrosarcoma (Meth A). Namely, adherent cells (macrophages) were collected from spleen cells of a BALB/c mouse. […] Then the ^3 H-thymidine-uptake suppression ratio was calculated by substituting the obtained values in accordance with the following formula and the result was expressed as the cytostatic activity on macrophages.
# Cytostatic Activity (%)={1-(Radioactivity of macrophages and target cells-Radioactivity of macrophages alone)(cpm)/(Radioactivity of target cells along)}×100
# [4] = tested on: IL-1 receptor antagonist (IL-1ra); assay: IL-1 receptor antagonist (IL-1ra) production (ELISA), human peripheral blood monocytes; format: cell-based
# IL-1β = assay: Cytokine inducing activity: IL-1β (ELISA), human peripheral blood monocytes; format: cell-based
# Procedure: (§1) The cytokine inducing activity was tested by using an ELISA system for assaying TNF-α (manufactured by Amersham Japan) and another ELISA system for assaying IL-1β (manufactured by Otsuka Pharmaceutical Co., Ltd.). […] Then the cytokines in the culture supernatant were assayed by the ELISA method.
# [5] = tested on: BALB/c mouse spleen cells; assay: Polyclonal B cell activation activity (ELISPOT); conditions: 72 hours
# anti-BSA IgG antibody = assay: Adjuvant activity (serum anti-BSA IgG by ELISA); format: in vivo, mouse (BALB/c); conditions: 100 μg compound with 100 μg BSA in FIA, s.c., days 0 and 28; day 5 after booster; BSA alone = 1.00
# Procedure: In this test, male BALB/c mice (each group having 6 animals) were used. On the days 0 and 28, 100 μg of bovine serum albumin (BSA) containing 100 μg of the compound of the present invention on the comparative compound or no such a compound was subcutaneously injected into each animal in the form of a water-in-oil type emulsion in Freund's incomplete adjuvant (FIA). On the day 5 following the booster, the level of anti-BSA IgG antibody formed in the serum was determined by the ELISA method. […] [formula]
# male rabbit = assay: Local Shwartzman reaction; format: in vivo; conditions: 100 μg/site intradermal, elicitation with Salmonella minnesota LPS i.v.
# Procedure: This test was carried out in the following manner. The test compound, which had been diluted to a definite concentration with 0.2 ml of physiological saline, was intradermally injected into a male rabbit. After 24 hours, 100 μg/ml/kg of Salmonella minnesota 9700 LPS-W (manufactured by Difco) was intravenously injected into the animal for elicitation. After 4 hours, intradermal hemorrhage was observed.
# [6] = tested on: Moloney virus-induced lymphoma YAC-1; assay: NK (natural killer) activity of spleen cells from treated mice against YAC-1 (51Cr release); format: in vivo, mouse (BALB/c)
# Procedure: This test was carried out in the following manner. […] On the day 14, the spleen cells of the animal were collected. To the prepared spleen cells (1×10^6 cells/0.1 ml), target cells (Moloney virus-inducedlymphoma YAC-1; 2×10^4 cells/ml) labeled with ^51 Cr were added followed by the incubation for 4 hours. […] After the completion of the incubation, 0.1 ml of the culture supernatant was collected and the amount (radiation dose) of ^51 Cr liberated due to the damage in the target cells was measured. Then the NK activity (%) was calculated by substituting each value in accordance with the following formula. NK Activity (%)={(Radioactivity of test group-Radioactivity of minimum free control group)(cpm)/(Radioactivity maximum free control group-Radioactivity of minimum free control group)(cpm)}
# TNF-α = assay: Cytokine inducing activity: TNF-α (ELISA), human peripheral blood monocytes; format: cell-based; conditions: 24 hours
# Procedure: as §1
# [7] = tested on: Tachypleus tridentatus lysate; conditions: Pregel reagent, gel formation
# rabbits = assay: Pyrogenicity test; conditions: i.v., rabbit, feverish = rise of 0.6° C. or more
# Procedure: In this test, rabbits were used and 5 ml/kg of the test compound diluted to a definite concentration with physiological saline was intravenously injected into each animal. Then the rectal temperature was measured. Rabbits showing an increase in the bodily temperature by 0.6° C. or more were referred to as feverish.
# [8] = Mus musculus, read-out: Mitogen activity, Stimulation Index
smiles,measurement,setting,value
CCCCCCCCCCCCCCCC(=O)OC(CCCCCCCCCCCC(C)C)CC(=O)NC1C(OCC2OC(OP(=O)(O)O)C(NC(=O)CC(O)CCCCCCCCCCCC(C)C)C(O)C2O)OC(CO)C(O)C1O (stereo not drawn) [Invention compound],fold induction at 5 µg/mL,[1]; [8],4.17
same,fold induction at 50 µg/mL,[1]; [8],7.46
same,"Galactosamine-loaded lethal toxicity, LD50",male C57BL mouse,> 10 µg
same,Antiviral activity (reciprocal of the dilution ratio to the 1 mg/ml sample wherein L929 cells survived at a ratio of 50%),"[2]; VSV 100 TCID50/0.1 ml on L929 cells, 24 hours",4.9
same,inhibition at 10 µg/mL,"[3]; 24 h, 10 μg/ml, Meth A with mouse macrophages",58.6%
same,inhibition at 100 µg/mL,"[3]; 24 h, 100 μg/ml, Meth A with mouse macrophages",64%
same,"Cytostatic activity, comparison with synthetic lipid A 506",[3]; in words,comparable to that of the synthetic lipid A 506
same,"production of IL-1ra in the culture supernatant, compared with synthetic lipid A 506",[4],in a larger amount than the synthetic lipid A 506 did
same,suppression of the production of IL-1β induced by LPS originating in Escherichia coli,"IL-1β; added simultaneously, 50 times as much as LPS",suppressed the production of IL-1β
same,suppression of the production of IL-1β induced by compound 506,"IL-1β; added simultaneously, 50 times as much as synthetic lipid A 506",suppressed the production of IL-1β
same,activity of inducing the production of IL-1β,"IL-1β; human peripheral blood monocytes, 24 hours",little activity
same,"Polyclonal B cell activation activity, Stimulation Index",[5]; 10 μg per 2.5×10^6 cells,22.0
same,"Polyclonal B cell activation activity, Stimulation Index",[5]; 100 μg per 2.5×10^6 cells,30.3
same,"Adjuvant activity, Stimulation Index",anti-BSA IgG antibody,2.48
same,"Local Shwartzman reaction, hemorrhage",male rabbit,no hemorrhage
same,NK activity,"[6]; 100 μg i.v. on days 0 and 7, spleen cells collected day 14, BALB/c mouse, YAC-1 targets, 4 hours",50.1%
same,"NK activity, comparison with synthetic lipid A 506","[6]; 100 μg i.v. on days 0 and 7, in words",comparable to the synthetic lipid A 506
same,activity of inducing the production of TNF-α,TNF-α,little activity
same,"Limulus test, minimum effective dose relative to that of the synthetic lipid A 506",[7],"1,000 times"
same,Pyrogenicity,rabbits; dose of 10 μg/kg,showed no pyrogenicity
"CCCCCCCCCCCCCC(=O)OC(CCCCCCCCCCC)CC(=O)O[C@@H]1[C@@H](NC(=O)CC(CCCCCCCCCCC)OC(=O)CCCCCCCCCCC)[C@H](OC[C@H]2O[C@H](OP(=O)(O)O)[C@H](NC(=O)CC(O)CCCCCCCCCCC)[C@@H](OC(=O)CCCCCCCCCCCCC)[C@@H]2O)O[C@H](CO)[C@H]1OP(=O)(O)O (stereo partly drawn) [Comparative compound 506, 6-O-[2-deoxy-2-(3-dodecanoyloxytetradecanoylamino)-3-O-(3-tetra-decanoyloxytetradecanoyl)-4-O-phosphono-β-D-glucopyranosyl]-2-deoxy-2-(3-hydroxytetradecanoylamino)-3-O-tetradecanoyl-1-O-phosphono-α-D-glucopyranose, reference compound]","Mitogen activity, Stimulation Index",[1]; 50 μg/ml,6.28
same,"Galactosamine-loaded lethal toxicity, LD50",male C57BL mouse,0.0079 µg
same,Antiviral activity (reciprocal of the dilution ratio to the 1 mg/ml sample wherein L929 cells survived at a ratio of 50%),[2],2.2
same,"Polyclonal B cell activation activity, Stimulation Index",[5]; 10 μg per 2.5×10^6 cells,15.7
same,"Polyclonal B cell activation activity, Stimulation Index",[5]; 100 μg per 2.5×10^6 cells,20.7
same,"Adjuvant activity, Stimulation Index",anti-BSA IgG antibody,1.99
same,Pyrogenicity,rabbits; dose of 0.01 μg,showed pyrogenicity

# Source: patent US5654289A, “Disaccharide derivative” (Suntory Limited, priority 1993, dated 1997)
